Measurements published in patent US20220411414A1, “INHIBITORS FOR THE B-CATENIN/B-CELL LYMPHOMA 9 (BCL9) PROTEIN-PROTEIN INTERACTION” (H. LEE MOFFITT CANCER CENTER AND RESEARCH INSTITUTE, INC., priority 2018, published 2022).

Assays:
A549 = assay: MTs growth inhibition assay, A549 (Wnt-latent); type: cell-based; settings: Homo sapiens, read-out: MTs IC50 ± SD A549
[1] = system: TOPFlash (three wild-type Tcf binding sites) luciferase reporter; assay: Wnt-responsive TOPFlash luciferase reporter assay, β-catenin-activated HEK239; type: cell-based; settings: 24 h treatment, read-out: TOPFlash IC50 ± SD β-catenin-activated HEK239
Description: The TOPFlash luciferase reporter assay (in which the luciferase reporter has three wild-type Tcf4 binding sites) was performed with 4 and 5. Cell transfection and luciferase assay. FuGENE6 (E269A, Promega) 96 well plate format was used for the transfection of HEK293 and SW480 cells according to the manufacturer's instruction. HEK293 cells were co-transfected with 45 ng of TOPFlash or FOPFlash reporter gene, 135 ng pcDNA3.1-β-catenin, and 20 ng of pCMV-RL normalization reporter gene. SW480 cells were co-transfected with 60 ng of the TOPFlash or FOPFlash reporter gene and 40 ng of pCMV-RL normalization reporter. Cells were cultured in DMEM and 10% FBS at 37° C. for 24 h, and different concentrations of inhibitors or DMSO was added. After 24 h, the luciferase reporter activity was measured using the Dual-Glo system (E2940, Promega). Normalized luciferase activity in response to the treatment with 4 and 5 was compared with that obtained from the cells treated with DMSO. Experiments were performed in triplicate.

[2] = system: mRNA expression of AXIN2, LEF1, cyclin D1 (Wnt target genes); assay: Quantitative real-time PCR of Wnt target genes in SW480 cells; type: cell-based, human; settings: SW480, 24 h, FIG. 2
Description: House-keeper gene HERT was used as a reference. Each set of data is expressed as mean±standard deviation (n=3).
Axin2, cyclin D1, c-myc, and LEF1 are the target genes of the canonical Wnt signaling pathway. Axin 2 is a specific target gene for the canonical Wnt signaling pathway (a. Yan D, et al., Elevated expression of axin2 and hnkd mRNA provides evidence that Wnt/beta-catenin signaling is activated in human colon tumors. Proc Natl Acad Sci USA. 2001 Dec. 18; 98(26):14973-8; b. Jho E H, et al., Wnt/beta-catenin/Tcf signaling induces the transcription of Axin2, a negative regulator of the signaling pathway. Mol Cell Biol. 2002 February; 22(4):1172-83; c. Leung J Y, et al., Activation of AXIN2 expression by beta-catenin-T cell factor. A feedback repressor pathway regulating Wnt signaling. J Biol Chem. 2002 Jun. 14; 277(24):21657-65; d. Lustig B, et al., Negative feedback loop of Wnt signaling through upregulation of conductin/axin2 in colorectal and liver tumors. Mol Cell Biol. 2002 February; 22(4):1184-93). Cyclin D1 (a. Tetsu O, et al., Nature. 1999 Apr. 1; 398(6726):422-6; b. Sansom O J, et al., Cyclin D1 is not an immediate target of beta-catenin following Apc loss in the intestine. J Biol Chem. 2005 Aug. 5; 280(31):28463-7; c. Shtutman M, et al., The cyclin D1 gene is a target of the beta-catenin/LEF-1 pathway. Proc Natl Acad Sci USA. 1999 May 11; 96(10):5522-7; d. Lin S Y, et al., Beta-catenin, a novel prognostic marker for breast cancer: its roles in cyclin D1 expression and cancer progression. Proc Natl Acad Sci USA. 2000 Apr. 11; 97(8):4262-6), c-myc (a. He T C, et al., Identification of c-MYC as a target of the APC pathway. Science. 1998 September 4; 281(5382):1509-12; b. Sansom O J, et al., Myc deletion rescues Ape deficiency in the small intestine. Nature. 2007 Apr. 5; 446(7136):676-9), and LEF1 (Hovanes K, et al., Beta-catenin-sensitive isoforms of lymphoid enhancer factor-1 are selectively expressed in colon cancer. Nat Genet. 2001 May; 28(1):53-7.; Filali M, et al., Wnt-3A/beta-catenin signaling induces transcription from the LEF-1 promoter. J Biol Chem. 2002 Sep. 6; 277(36):33398-410; Li T W, et al., Wnt activation and alternative promoter repression of LEF1 in colon cancer. Mol Cell Biol. 2006 July; 26(14):5284-99; Nguyen D X, et al., WNT/TCF signaling through LEF1 and HOXB9 mediates lung adenocarcinoma metastasis. Cell. 2009 Jul. […] Quantitative real-time PCR studies were also conducted to evaluate the inhibitory effects of 4 on the mRNA levels of Wnt target genes.
Quantitative real time PCR analysis. SW480 cells at 1×10^6/mL were treated with different concentrations of 4 for 24 h. […] Quantitative PCR (qPCR) was performed using the iQ™ SYBR green supernix kit (170-8880, BIO-RAD) on an iQ^5 multicolor real-time PCR reaction system (BIO-RAD). […]

Compound: Cl.Cl.O=C(Nc1ccc(O[C@@H]2CCNC2)c(-c2cccc(-c3nn[nH]n3)c2)c1)c1ccc(O[C@H]2CCNC2)c(-c2ccc(F)c(F)c2)c1 [Compound 4, 3′,4′-difluoro-6-(((S)-pyrrolidin-3-yl)oxy)-N-(6-(((R)-pyrrolidin-3-yl)oxy)-3′-(2H-tetrazol-5-yl)-[1,1′-biphenyl]-3-yl)-[1,1′-biphenyl]-3-carboxamide dihydrochloride]
- IC50 (A549): > 400 µM
- IC50 [1]: 25 ± 4.1 µM
- mRNA of house-keeper gene HERT [2]: did not inhibit
- transcription of Axin2 [2]: dose-dependently inhibit
- transcription of LEF1 [2]: dose-dependently inhibit
- transcription of cyclin D1 [2]: dose-dependently inhibit
